Experimental findings from patent publication US7417169B2, “Amino alcohol derivatives, medicinal composition containing the same, and use of these” (Kissei Pharmaceutical Co., Ltd., priority 2003, dated 2008) are described below.

Molecules are shown by their SMILES.

What all share (format): cell-based
One assay addresses T1, human β2-adrenoceptor (Homo sapiens, UniProt P07550, E27Q/G16R).
T1 construct: expressed in transfected cells; host or cells: CHO cells (transient transfection, Lipofectamine 2000)
As to the kind of experiment: Measurement of agonistic activities on human β2-adrenoceptor (cAMP accumulation in transfected CHO cells). The following applies: CHO cells expressing human β2-adrenoceptor; for Emax: maximum reaction relative to isoproterenol (100%), read-out: β2 receptor I.A. (intrinsic activity); for EC50: cAMP, concentration giving 50% of the maximum reaction of isoproterenol, read-out: β2 receptor EC50. The source says: (§1) Measurement of Agonistic Activities on Human β1- and β2-Adrenoceptors
The primer which added a restriction enzyme recognition region to 5′ end was designed on the basis of the base information that is registered with GenBank/EMBL data base as Accession No. M15169, and the clone was obtained by performance of PCR using human bladder origin cDNA as a template. The clone was inserted into pGEM-T vector and was amplified in Escherichia coli bacteria as a plasmid, and it was purified and the sequence of full length and around of insertion sequence determined by means of 310 Genetic Analyzer (ABI).
2) Preparation of Human β2-Adreoceptor Expressed Cells
The plasmid (80 ng) for expression obtained in the previous section was transfected into 5×10^4 CHO cells suspended in DMEM (Gibco-BRL: LIFE TECHNOLOGIES) containing 10% fetal bovine serum (Sanko Junyaku) by means of Lipofectoamine2000 (Invitrogen). These cells were dispensed in 96 well plate by 5×10^4 cells/100 μL per well and were cultured under an atmosphere of 5% CO2 at 37° C. for 24 hours, and were used for the assay.
(§2) 3. Measurement of Agonistic Activities on Human β1- and β2-Adrenoceptors
(§3) Test compounds were dissolved in 50% dimethyl sulfoxide to make a 10^−2 M solution. Then, a series of 1:10 dilutions containing a maximal dose of 2×10^−4 M were prepared using D-PBS (−) (Gibco-BRL: LIFE TECHNOLOGIES). The series were used for a testing sample to measure activity. The culture medium of CHO cells of previous section was removed and washed twice with 200 μL D-PBS (−) per well. After that, 50 μL of 3-isobutyl-1-methylxanthine (SIGMA, 1 mM) was added and leaved at rest for 5 minutes, and 50 μL of testing sample were added in them and they were incubated under an atomosphere of 5% CO2 at 37° C. for 30 minutes. cAMP concentrations accumulated in cells were reacted in cAMP-Screen (Applied Biosystems) and were detected by Microplate Luminometer TR717 (Applied Biosystems). The maximum reaction of isoproterenol, a positive contrast, was taken as a 100%, and the concentration of a test compound which gave reaction of the 50% was calculated as an EC50 value. In addition, the ratio of the maximum reaction of the test compound against the maximum reaction of isoproterenol was calculated as an intrinsic activity (I.A.).
(§4) (R)-3′-[[2-[[2-(3-chlorophenyl)-2-hydroxyethyl]aminoethoxy]-[1,1′-biphenyl]-3-carboxylic acid which was described in WO99/65877 was also examined as a comparison example.

Another assay deals with T2, human β1-adrenoceptor (Homo sapiens, UniProt P08588).
T2 construct: Both ends of a domain including full length of human β1-adrenoceptor were amplified; expressed in transfected cells; host or cells: CHO cells (transient transfection of pCI-neo plasmid, Lipofectamine 2000)
As to the kind of experiment: Measurement of agonistic activities on human β1-adrenoceptor (cAMP accumulation in transfected CHO cells). The settings on record: CHO cells expressing human β1-adrenoceptor; for EC50: cAMP, concentration giving 50% of the maximum reaction of isoproterenol, read-out: β1 receptor EC50; for Emax: maximum reaction relative to isoproterenol (100%), read-out: β1 receptor I.A. (intrinsic activity).
Description: as §1
Both ends of a domain including full length of human β1-adrenoceptor were amplified on the basis of DNA base information that is registered with GenBank/EMBL data base as Accession No. J03019. DNA fragment which was amplified was inserted into a vector for cloning and amplified in Escherichia coli bacteria. The plasmid which was cloned was inserted into a vector pCI-neo (Promega) for protein expression and plasmid DNA was extracted and purified, then it was used for a preparation of the following expression cells.
1) Preparation of Human β1-Adrenoceptor Expressed Cells
The plasmid (320 ng) for expression which was obtained in the previous section was transfected into 5×10^4 CHO cells suspended in DMEM (Gibco-BRL: LIFE TECHNOLOGIES) containing 10% fetal bovine serum (Sanko Junyaku) by means of Lipofectoamine2000 (Invitrogen). These cells were dispensed in 96 well plate by 5×10^4 cells/100 μL per well and were cultured under an atmosphere of 5% CO2 at 37° C. for 24 hours, and were used for the assay.
as §2, §3, §4
In general terms: Cyclic AMP is a second messenger, typically raised through Gs and lowered through Gi signalling.

Another assay deals with T3, human β3-adrenoceptor (Homo sapiens, UniProt P13945).
T3 construct: SK—N-MC cells (American Type Culture Collection, 1×10^5cell/mL) were put in 96 well plates; host or cells: SK-N-MC cells
The assay is described as follows: Measurement of agonistic activities on human β3-adrenoceptor (cAMP accumulation in SK-N-MC cells). The following applies: for EC50: SK-N-MC cells with CGP-20712A, cAMP, concentration giving 50% of the maximum reaction of isoproterenol, read-out: β3 receptor EC50; for Emax: SK-N-MC cells, maximum reaction relative to maximum reaction of isoproterenol (100%), read-out: β3 receptor I.A. (intrinsic activity). On the procedure: Measurement of Agonistic Activities on Human β3-Adrenoceptor
Test compounds were dissolved in 50% dimethyl sulfoxide to make a 10^−2 M solution. Then, a series of 1:10 dilutions containing a maximal dose of 1×10^−4 M were prepared using D-PBS (−) (Gibco-BRL: LIFE TECHNOLOGIES). The series were used for a testing sample to measure activity. SK—N-MC cells (American Type Culture Collection, 1×10^5cell/mL) were put in 96 well plates by 100 μL and were cultured for about 24 hours. Forty μL of D-PBS and 20 μL of CGP-20712A (FUNAKOSHI, 3×10^−6 mol/L D-PBS solution) were added in them and incubated for 20 minutes. After that, 20 μL of 3-isobutyl-1-methylxanthine (SIGMA, 1×10^−2 mol/L D-PBS solution) and 20 μL of testing sample were added in them and they were incubated under an atmosphere of 5% CO2 at 37° C. for 30 minutes. cAMP concentrations accumulated in cells were reacted in cAMP-Screen (Applied Biosystems) and were detected by Microplate Luminometer TR717 (Applied Biosystems). The maximum reaction of isoproterenol, a positive contrast, was taken as a 100%, and the concentration of a test compound which gave reaction of the 50% was calculated as an EC50 value. In addition, the ratio of the maximum reaction of the test compound against the maximum reaction of isoproterenol was calculated as an intrinsic activity (I.A.). (R)-3′-[[2-[[2-(3-chlorophenyl)-2-hydroxyethyl]aminoethoxy]-[1,1′-biphenyl]-3-carboxylic acid which was described in WO99/65877 was also examined as a comparison example.

T1 sequence (P07550 whole entry G16R/E27Q): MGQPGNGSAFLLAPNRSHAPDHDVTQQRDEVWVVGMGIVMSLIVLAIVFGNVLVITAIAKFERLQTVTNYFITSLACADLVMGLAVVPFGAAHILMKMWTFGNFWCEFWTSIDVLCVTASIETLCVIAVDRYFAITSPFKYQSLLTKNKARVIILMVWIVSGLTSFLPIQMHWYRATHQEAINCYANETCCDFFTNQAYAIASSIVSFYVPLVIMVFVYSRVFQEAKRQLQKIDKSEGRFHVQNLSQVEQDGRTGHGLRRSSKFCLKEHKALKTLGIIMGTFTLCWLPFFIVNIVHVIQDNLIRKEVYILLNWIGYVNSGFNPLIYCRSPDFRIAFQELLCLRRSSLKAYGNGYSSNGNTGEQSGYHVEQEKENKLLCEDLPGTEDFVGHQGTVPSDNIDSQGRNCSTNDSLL
T3 sequence (P13945 whole entry): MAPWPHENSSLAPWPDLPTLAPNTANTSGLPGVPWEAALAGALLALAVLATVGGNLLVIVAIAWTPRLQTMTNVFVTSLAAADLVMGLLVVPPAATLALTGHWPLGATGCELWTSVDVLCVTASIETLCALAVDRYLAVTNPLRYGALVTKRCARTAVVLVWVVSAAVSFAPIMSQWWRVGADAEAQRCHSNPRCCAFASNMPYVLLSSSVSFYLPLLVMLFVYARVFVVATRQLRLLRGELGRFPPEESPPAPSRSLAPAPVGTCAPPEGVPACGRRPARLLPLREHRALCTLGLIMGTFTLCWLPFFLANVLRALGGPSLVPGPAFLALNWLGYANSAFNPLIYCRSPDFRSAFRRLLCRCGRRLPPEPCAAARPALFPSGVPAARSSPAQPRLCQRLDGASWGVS
T2 sequence (P08588 whole entry): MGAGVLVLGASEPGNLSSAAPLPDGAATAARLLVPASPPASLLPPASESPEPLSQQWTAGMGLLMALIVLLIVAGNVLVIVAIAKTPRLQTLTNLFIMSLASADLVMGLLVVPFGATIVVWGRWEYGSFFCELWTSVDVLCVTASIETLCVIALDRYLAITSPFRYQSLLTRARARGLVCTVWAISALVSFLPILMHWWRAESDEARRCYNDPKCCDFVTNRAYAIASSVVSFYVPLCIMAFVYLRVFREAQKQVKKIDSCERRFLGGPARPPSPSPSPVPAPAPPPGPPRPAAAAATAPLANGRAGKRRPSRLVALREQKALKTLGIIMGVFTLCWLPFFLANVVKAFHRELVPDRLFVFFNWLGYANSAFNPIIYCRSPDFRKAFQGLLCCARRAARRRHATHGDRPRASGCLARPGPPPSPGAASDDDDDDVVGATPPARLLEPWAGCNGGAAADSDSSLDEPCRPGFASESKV

A word on the EC50: it is the midpoint of the concentration-response curve. `CCOc1cc(-c2ccc(OCCNC[C@H](O)c3ccc(O)c(NS(C)(=O)=O)c3)cc2)ccc1C(=O)O` [Compound 28, 3-Ethoxy-4′-{2-[(R)-2-hydroxy-2-(4-hydroxy-3-methanesulfonylaminophenyl)ethylamino]ethoxy}biphenyl-4-carboxylic acid]: the Emax on human β2-adrenoceptor came to 27%; at human β1-adrenoceptor, 85%; at human β3-adrenoceptor, 112%. Also, the results for the concentration for a half-maximal effect (EC50) on human β1-adrenoceptor and on human β3-adrenoceptor were 1670 nM and 19.3 nM, respectively.
For the compound `O=C(O)c1cccc(-c2cccc(OCCNC[C@H](O)c3cccc(Cl)c3)c2)c1` [comparison, reference compound], the Emax was found to be 15% at human β2-adrenoceptor, 60% on human β1-adrenoceptor and 27% at human β3-adrenoceptor. Also, on human β1-adrenoceptor, the EC50 is 742 nM.
For `CS(=O)(=O)Nc1cc([C@@H](O)CNCCOc2ccc(-c3ccc(C(=O)O)c(C(=O)O)c3)cc2)ccc1O` [Compound 21, 4′-{2-[(R)-2-Hydroxy-2-(4-hydroxy-3-methanesulfonylaminophenyl)ethylamino]ethoxy}biphenyl-3,4-dicarboxylic acid], the results for the EC50 on human β2-adrenoceptor, at human β1-adrenoceptor and at human β3-adrenoceptor were 4490 nM, 9330 nM and 57.1 nM, respectively. The Emax on human β2-adrenoceptor amounted to 61%; at human β1-adrenoceptor, 86%; at human β3-adrenoceptor, 154%.
Consider `Cc1cc(-c2ccc(OCC(=O)O)cc2)cc(C)c1OCCN[C@@H](C)[C@H](O)c1ccc(O)c(NS(C)(=O)=O)c1` [Compound 9, (4′-{2-[(1S,2R)-2-Hydroxy-2-(4-hydroxy-3-methanesulfonylaminophenyl)-1-methylethylamino]ethoxy}-3′,5′-dimethylbiphenyl-4-yloxy)acetic acid], for which the figures for the EC50 at human β2-adrenoceptor and on human β3-adrenoceptor were 200 nM and 14.2 nM, respectively. For the same compound, the Emax at human β2-adrenoceptor is 60%; at human β1-adrenoceptor it was 49%; on human β3-adrenoceptor, 222%.
